Assay results as given in US10858316B2, “Small molecule inhibitors of the MCL-1 oncoprotein and uses thereof” (University of Maryland, Baltimore, priority 2015, dated 2020).
Values joined by “and” are separate entries in the source; they are usually repeats but may differ in a detail not shown here. Identical values can stand only once. Like-named read-outs stand apart in the source and are kept apart here.

Assays:
Mcl-1 = Mcl-1 (Homo sapiens (Human), UniProt Q07820); assay: Fluorescence polarization competition assay (FPCA), Mcl-1 / FITC-Bak BH3 peptide; assay type: binding; details: for Mcl-1 Exp ΔG: ΔG=−RTlnKi from experimental Ki
Excerpt: The tagged protein was initially purified from the crude cell lysate by immobilized metal affinity chromatography (IMAC) chromatography (GE Healthcare Life Sciences), and after dialysis to remove the imidazole the affinity tag was cleaved using PreScission Protease (GE Healthcare Life Sciences). A Sephacryl S-200 size exclusion column was used as a final purification step before the protein was concentrated with a 10,000 MWCO centifugal filter concentrator (Millipore).
(§1) Fluorescence polarization experiments were conducted using a BMG PHERAstar FS multimode microplate reader equipped with two PMTs for simultaneous measurements of the perpendicular and parallel fluorescence emission. The assays were performed in black polypropylene 384-well microplate (Costar) with a final volume of 20 microliter. […] Regression analysis was carried out using Origin (OriginLab, Northampton, Mass.) to fit the data to the Hill equation (1) to determine the initial binding affinity (KD) and the IC50 in the FPCA. For the fluorescence polarization competition titrations, an equation derived by Nikolovska-Coleska et al. was used to calculate the Ki from the IC50 data.
The target molecules were assayed for their abilities to disrupt the Mcl-1-Bak-BH3 PPI in a fluorescence polarization competition (FPC) assay with Mcl-1 and FITC-labeled Bak-BH3 peptide. Further details on the FPC assay can be found in the Supporting Information.

Bcl-xL = Bcl-xL (Homo sapiens (Human), UniProt Q07817); assay: Fluorescence polarization competition assay, Bcl-xL; assay type: binding
Description: as §1

[1] = FPCA with FITC-Bak, Ki from IC50 by Nikolovska-Coleska equation, read-out: Mcl-1 Ki
[2] = Ki from IC50 by Nikolovska-Coleska equation, NA = no activity, read-out: Bcl-xL Ki
[3] = fluorescence polarization competition assay, read-out: Ki (μM) Mcl-1

Chain of Bcl-xL (Q07817 whole entry): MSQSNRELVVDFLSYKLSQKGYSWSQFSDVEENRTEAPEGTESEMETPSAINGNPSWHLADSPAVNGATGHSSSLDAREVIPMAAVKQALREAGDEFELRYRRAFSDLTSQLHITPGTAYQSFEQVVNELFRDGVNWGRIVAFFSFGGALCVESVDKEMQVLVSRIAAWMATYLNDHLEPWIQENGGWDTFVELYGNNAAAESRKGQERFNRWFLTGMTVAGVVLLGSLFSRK
Chain of Mcl-1 (Q07820 172-327): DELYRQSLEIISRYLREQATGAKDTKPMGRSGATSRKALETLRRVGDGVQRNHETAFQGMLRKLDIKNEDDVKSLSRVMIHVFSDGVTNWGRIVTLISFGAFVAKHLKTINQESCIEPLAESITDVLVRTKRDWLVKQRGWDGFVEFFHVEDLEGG

SMILES	Ki (Mcl-1; [1])	further results
CC(C)CN(c1ccc(O)c(C(=O)O)c1)S(=O)(=O)c1ccc2ccccc2c1 [jy-5-299 18bb]	7.51 ± 0.84 µM	Ki (Bcl-xL; [2]): 44.6 ± 5.93 µM
Cc1cc(Oc2ccc(S(=O)(=O)N(c3ccc(C(=O)O)c(O)c3)C3CCCC3)cc2)cc(C)c1Cl [LC-4-104 13bc]	1.76 ± 0.208 µM	Ki (Bcl-xL; [2]): 1.91 ± 0.117 µM
O=C(NS(=O)(=O)c1ccc(NCC2CCOCC2)c([N+](=O)[O-])c1)c1ccc(N(Cc2ccccc2)S(=O)(=O)c2ccc(Oc3ccccc3)cc2)cc1O [LC-5-107 30]	1.23 ± 0.152 µM	Ki (Bcl-xL; [2]): 1.05 ± 0.146 µM
Cc1cc(Oc2ccc(S(=O)(=O)N(Cc3ccccc3)c3ccc(O)c(C(=O)O)c3)cc2)cc(C)c1Cl [LC-5-129 29]	1.4 ± 0.47 µM	Ki (Bcl-xL; [2]): 1.82 ± 0.234 µM
CC(C)CN(c1ccc(C(=O)O)c(O)c1)S(=O)(=O)c1ccc2ccccc2c1 [4jc117-3 13ab]	13.8 ± 1.32 µM	Ki (Bcl-xL; [2]): 43.1 ± 14.7 µM
CS(=O)(=O)NC(=O)c1ccc(N(Cc2ccccc2)S(=O)(=O)c2ccc(Oc3ccccc3)cc2)cc1O [LC-5-112 27]	2.94 ± 0.35 µM	Ki (Bcl-xL; [2]): 7.22 ± 1.07 µM
Cc1cc(Oc2ccc(S(=O)(=O)N(Cc3ccccc3)c3ccc(O)c(C(=O)NS(=O)(=O)c4ccc(NCC5CCOCC5)c([N+](=O)[O-])c4)c3)cc2)cc(C)c1Cl [LC-5-132 33]	1.01 ± 0.08 µM	Ki (Bcl-xL; [2]): 1.54 ± 0.226 µM
Cc1cc(Oc2ccc(S(=O)(=O)N(CC(C)C)c3ccc(C(=O)O)c(O)c3)cc2)cc(C)c1Cl [Compound 4jc117-6]		Ki (Mcl-1; [3]): 0.02 ± 0.012 µM; Ki (Bcl-xL; fluorescence polarization competition assay, read-out: Ki (μM) Bcl-xL): 0.05 ± 0.01 µM
O=C(NS(=O)(=O)c1ccccc1)c1ccc(N(Cc2ccccc2)S(=O)(=O)c2ccc(Oc3ccccc3)cc2)cc1O [LC-5-096 28]	1.9 µM and 1.95 µM	Ki (Bcl-xL; [2]): 2.34 ± 0.221 µM
Cc1cc(Oc2ccc(S(=O)(=O)N3CCCc4cc(C(=O)O)ccc43)cc2)cc(C)c1Cl [LC-3-012, 1-((4-(4-chloro-3,5-dimethylphenoxy)phenyl)sulfonyl)-1,2,3,4-tetrahydroquinoline-6-carboxylic acid]	0.332 µM	
O=C(O)C1Cc2ccccc2N(S(=O)(=O)c2ccc(Br)cc2)C1 (racemic) [±-8b]	117 ± 19 µM	Ki (Mcl-1; FPC assay, read-out: Mcl-1 Ki): 117 µM
Cc1cc(Oc2ccc(S(=O)(=O)N(CC(C)C)c3ccc(C(=O)O)cc3)cc2)cc(C)c1Cl [LC-3-035, 4-(4-(4-chloro-3,5-dimethylphenoxy)-N-isobutylphenylsulfonamido)benzoic acid]		Ki (Mcl-1; [3]): 0.261 ± 0.558 µM
Cc1cc(Oc2ccc(S(=O)(=O)N(CC(C)C)c3ccc(C(=O)O)cc3)cc2)cc(C)c1Cl [LC-3-035 8e]	2.06 ± 0.118 µM	
N#Cc1cccc(NS(=O)(=O)c2cc(C(=O)O)c(O)c3ccccc23)c1 [3ad; 5JC75-2]		Mcl-1 Exp ΔG (Mcl-1): -6.23 kcal/mol
Cc1ccc(NS(=O)(=O)c2cc(C(=O)O)c(O)c3ccccc23)cc1 [Compound 3x, 1-Hydroxy-4-(N-(p-tolyl)sulfamoyl)-2-naphthoic Acid]	34.3 ± 1 µM	
O=C(O)c1ccc(N(Cc2ccccc2)S(=O)(=O)c2ccc3ccccc3c2)cc1O [LC-4-113 13ca]	11.4 ± 1.57 µM	
CC(C)CN(c1ccc(C(=O)O)c(O)c1)S(=O)(=O)c1ccc(F)cc1 [LC-5-025 13ad]	99.4 ± 9.37 µM	
O=C(O)c1ccc(N(C2CCCC2)S(=O)(=O)c2ccc3ccccc3c2)cc1O [LC-4-083 13ba]	24.7 ± 9.45 µM	
O=C(O)C1Cc2ccccc2N(S(=O)(=O)c2ccc(F)cc2)C1 (racemic) [±-8c]	176 ± 115 µM	
O=C(O)C1Cc2ccccc2N(S(=O)(=O)c2ccc(-c3ccccc3)cc2)C1 (racemic) [±-8d]	> 500 µM	Ki (Mcl-1; FPC assay, read-out: Mcl-1 Ki): > 500 µM
CC(C)c1ccc(NS(=O)(=O)c2cc(C(=O)O)c(O)c3ccccc23)cc1 [Compound 3y, 1-Hydroxy-4-(N-(4-isopropylphenyl)sulfamoyl)-2-naphthoic Acid]	3.86 ± 1.53 µM	
O=C(O)c1ccc2c(c1)CCCN2S(=O)(=O)c1ccc2ccccc2c1 [LC-3-006, 1-(naphthalen-2-ylsulfonyl)-1,2,3,4-tetrahydroquinoline-6-carboxylic acid]	22 µM	
COC(=O)c1cc(S(=O)(=O)N(CC(C)C)c2ccc(Br)cc2)c2ccccc2c1O [Compound 3cb, Methyl 4-(N-(4-bromophenyl)-N-isobutylsulfamoyl)-1-hydroxy-2-naphthoate]	> 500 µM	Mcl-1 Exp ΔG (Mcl-1): >-4.50 kcal/mol
CC(=O)OCOC(=O)c1ccc(N(CC(C)C)S(=O)(=O)c2ccc(Oc3ccccc3)cc2)cc1O [LC-4-141 22]	> 500 µM	
CC(C)CN(c1ccc(C(=O)O)cc1)S(=O)(=O)c1ccc2ccccc2c1 [LC-3-031 8b]	> 500 µM	

SMILES	Ki (Mcl-1; [1])	further results
O=C(O)c1ccc2c(c1)CCCN2S(=O)(=O)c1ccc(-c2ccccc2)cc1 [LC-3-002, 1-([1,1′-biphenyl]-4-ylsulfonyl)-1,2,3,4-tetrahydroquinoline-6-carboxylic acid]	14 µM	
O=C(O)c1cc(S(=O)(=O)Nc2ccc(Cl)cc2)c2ccccc2c1O [Compound 3v, 4-(N-(4-Chlorophenyl)sulfamoyl)-1-hydroxy-2-naphthoic Acid]	1.91 ± 0.26 µM	
CC(C)CN(c1ccc(C(=O)O)cc1)S(=O)(=O)c1ccc(-c2ccccc2)cc1 [LC-3-030 8c]	16.7 ± 2.28 µM	Ki (Mcl-1; FPCA with FITC-Bak, Ki from IC50 by Nikolovska-Coleska equation, listed as 8c, read-out: Mcl-1 Ki): 16.7 µM
Cc1ccc(S(=O)(=O)N(CC(C)C)c2ccc(C(=O)O)c(O)c2)cc1 [Compound 4jc117-2, 2-hydroxy-4-(N-isobutyl-4-methylphenylsulfonamido)benzoic acid]		Ki (Mcl-1; read-out: Mcl-1 Ki): 302 ± 31.8 µM
Cc1ccc(S(=O)(=O)N(CC(C)C)c2cccc(C(=O)O)c2)cc1 [4jc177-2 18ae]	155 ± 14.7 µM	
O=C(O)c1cc(S(=O)(=O)Nc2cccc(Br)c2)c2ccccc2c1O [Compound 3n, 4-(N-(3-Bromophenyl)sulfamoyl)-1-hydroxy-2-naphthoic Acid]	5.64 ± 1.76 µM	
O=C(O)c1ccc2c(c1)CCCN2S(=O)(=O)c1ccc(Br)cc1 [LC-3-004, 1-((4-bromophenyl)sulfonyl)-1,2,3,4-tetrahydroquinoline-6-carboxylic acid]	203 µM	
Cc1ccc(Oc2ccc(S(=O)(=O)N(CC(C)C)c3ccc(C(=O)O)c(O)c3)cc2)cc1 [LC-4-119 13ah]	2.25 ± 0.168 µM	
O=C(O)c1cc(S(=O)(=O)N2CCN(c3ccccc3)CC2)c2ccccc2c1O [3j; EW-2-051]		Mcl-1 Exp ΔG (Mcl-1): -7.29 kcal/mol
O=C(O)C1Cc2ccccc2N(S(=O)(=O)c2ccc(Br)cc2)C1 (racemic) [SF-5-135, (±)-1-((4-bromophenyl)sulfonyl)-1,2,3,4-tetrahydroquinoline-3-carboxylic acid]		Ki (Mcl-1; read-out: Mcl-1 Ki): > 1000 µM
Cc1ccc(NS(=O)(=O)c2cc(C(=O)O)c(O)c3ccccc23)cc1 [3x; 5JC74-1]		Mcl-1 Exp ΔG (Mcl-1): -6.09 kcal/mol
CN(C)S(=O)(=O)c1cc(C(=O)O)c(O)c2ccccc12 [3h; SF-5-295]		Mcl-1 Exp ΔG (Mcl-1): -6.26 kcal/mol
Cc1cc(Oc2ccc(S(=O)(=O)N3CC(C(=O)O)Cc4ccccc43)cc2)cc(C)c1Cl (racemic) [SF-5-141, (±)-1-((4-(4-chloro-3,5-dimethylphenoxy)phenyl)sulfonyl)-1,2,3,4-tetrahydroquinoline-3-carboxylic acid]		Ki (Mcl-1; read-out: Mcl-1 Ki): 0.286 µM
O=C(O)c1cc(S(=O)(=O)N2CCN(Cc3ccccc3)CC2)c2ccccc2c1O [Compound 3k, 4-((4-Benzylpiperazin-1-yl)sulfonyl)-1-hydroxy-2-naphthoic Acid]	3.41 ± 0.37 µM	
O=C(O)c1ccc(N(Cc2ccccc2)S(=O)(=O)c2ccc(-c3ccccc3)cc2)cc1O [LC-4-112 13cb]	1.71 ± 0.144 µM	
NS(=O)(=O)c1cc(C(=O)O)c(O)c2ccccc12 [Compound 3b, 1-Hydroxy-4-sulfamoyl-2-naphthoic Acid]	99 µM	
CC(C)Oc1ccc(NS(=O)(=O)c2cc(C(=O)O)c(O)c3ccccc23)cc1 [Compound 3aa, 1-Hydroxy-4-(N-(4-isopropoxyphenyl)sulfamoyl)-2-naphthoic Acid]	54 ± 4.6 µM	
CC(C)CN(c1ccc(C(=O)O)c(O)c1)S(=O)(=O)c1ccc(-c2ccccc2)cc1 [Compound 4jc117-4, 2-hydroxy-4-(N-isobutyl-[1,1′-biphenyl]-4-ylsulfonamido)benzoic acid]		Ki (Mcl-1; [3]): 7.87 ± 0.263 µM
O=C(O)c1cc(S(=O)(=O)Nc2ccc(Oc3ccc(Cl)cc3)cc2)c2ccccc2c1O [3bh; SF-5-304]		Mcl-1 Exp ΔG (Mcl-1): -9.22 kcal/mol
O=C(O)c1cc(S(=O)(=O)Nc2ccccc2-c2ccccc2)c2ccccc2c1O [Compound 3r, 4-(N-([1,1′-Biphenyl]-2-yl)sulfamoyl)-1-hydroxy-2-naphthoic Acid]	8.5 ± 1.34 µM	
Cc1cc(C)cc(Oc2ccc(S(=O)(=O)N(CC(C)C)c3ccc(C(=O)O)c(O)c3)cc2)c1 [LC-4-100 13ai]	2.96 ± 0.286 µM	
O=C(O)C1Cc2ccccc2N(S(=O)(=O)c2ccc(F)cc2)C1 (racemic) [SF-5-136, (±)-1-((4-fluorophenyl)sulfonyl)-1,2,3,4-tetrahydroquinoline-3-carboxylic acid]		Ki (Mcl-1; read-out: Mcl-1 Ki): > 1000 µM
O=C(O)c1cc(S(=O)(=O)Nc2ccccc2Br)c2ccccc2c1O [Compound 3m, 4-(N-(2-bromophenyl)sulfamoyl)-1-hydroxy-2-naphthoic Acid]	6.84 ± 2.23 µM	
O=C(O)C1Cc2ccccc2N(S(=O)(=O)c2ccc(-c3ccccc3)cc2)C1 (racemic) [SF-5-133, (±)-1-([1,1′-biphenyl]-4-ylsulfonyl)-1,2,3,4-tetrahydroquinoline-3-carboxylic acid]		Ki (Mcl-1; read-out: Mcl-1 Ki): 12 µM
